# Test results taken from US20160326142A1, “PYRAZOLE CARBOXAMIDE COMPOUNDS, COMPOSITIONS AND METHODS OF USE” (Genentech, Inc., priority 2012, published 2016).
# pKi: −log10 of the molar value.
# Molecular target: T1, ITK (Homo sapiens, UniProt Q08881)
# T1 construct: purchased Invitrogen PV3875
# T1 sequence (Q08881 1-620): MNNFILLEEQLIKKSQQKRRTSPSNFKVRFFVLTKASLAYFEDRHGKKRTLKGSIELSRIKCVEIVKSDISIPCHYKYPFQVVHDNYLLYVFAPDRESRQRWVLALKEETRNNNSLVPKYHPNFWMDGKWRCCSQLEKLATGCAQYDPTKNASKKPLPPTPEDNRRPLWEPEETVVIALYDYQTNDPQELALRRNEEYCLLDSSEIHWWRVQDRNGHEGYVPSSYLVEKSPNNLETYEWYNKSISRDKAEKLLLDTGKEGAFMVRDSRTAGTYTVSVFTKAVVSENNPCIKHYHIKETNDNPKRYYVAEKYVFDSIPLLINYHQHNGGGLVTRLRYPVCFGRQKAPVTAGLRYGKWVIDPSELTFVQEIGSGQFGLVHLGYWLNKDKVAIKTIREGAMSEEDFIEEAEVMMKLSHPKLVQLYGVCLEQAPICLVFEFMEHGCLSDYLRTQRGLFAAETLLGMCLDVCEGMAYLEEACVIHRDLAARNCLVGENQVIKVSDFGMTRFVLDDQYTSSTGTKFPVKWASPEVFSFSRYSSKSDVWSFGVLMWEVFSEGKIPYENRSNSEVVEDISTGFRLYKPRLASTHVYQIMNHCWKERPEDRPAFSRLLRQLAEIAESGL
# Test: ITK enzyme assay (Caliper or LCMS peptide phosphorylation)
# Format: biochemical
# Details: purified ITK (Invitrogen PV3875), 20 μM ATP, Ki by Morrison's quadratic equation
# Method: The ability of purified ITK (Invitrogen PV3875) to catalyze peptide phosphorylation is monitored using a Caliper LabChip 3000 microfluidic unit (Caliper assay) or by liquid chromatography-mass spectrometry (LCMS) using a Waters Acquity system (LCMS assay). […] Reactions are quenched by the addition of 2,2′,2″,2′″-(ethane-1,2-diyldinitrilo)tetraacetic acid (50 mM final). Non-phosphorylated substrate and phosphorylated product peptides are separated and quantified using a Caliper LabChip 3000 instrument. […] Reactions are quenched by the addition of trichloroacetic acid (5% v/v final). Non-phosphorylated substrate and phosphorylated product peptides are separated by ultra performance LC and detected by a coupled triple quadrupole MS device applying multiple reaction monitoring (MRM) for quantification. The area of the MRM-extracted mass signal is used to assess the inhibition by test compounds. Equilibrium dissociation constant (Ki) values for ITK inhibitors are calculated from plots of activity vs. inhibitor concentration using Morrison's quadratic equation that accounts for the potential of tight binding, and by also applying the conversion factor that accounts for competitive inhibition and the concentration of ATP used in the assay relative to its apparent Michaelis constant (Km,app).
row,pKi,SMILES
1,7.02,"Cn1cc(C(c2ccccc2)n2cc(NC(=O)c3n[nH]c4c3CC3CC3C4)cn2)cn1 (single isomer, unassigned) [Example 27d, N-(1-((1-methyl-1H-pyrazol-4-yl)(phenyl)methyl)-1H-pyrazol-4-yl)-1,4,4a,5,5a,6-hexahydro cyclopropa[f]indazole-3-carboxamide]"
2,7.80,"CN(C)CCC(c1ccccc1)n1cc(NC(=O)c2n[nH]c3c2CC2CC2C3)cn1 (single isomer, unassigned) [Example 28a, N-(1-(3-(dimethylamino)-1-phenylpropyl)-1H-pyrazol-4-yl)-1,4,4a,5,5a,6-hexahydrocyclopropa[f]indazole-3-carboxamide]"
3,8.22,"CN(C)CCC(c1ccccc1)n1cc(NC(=O)c2n[nH]c3c2CC2CC2C3)cn1 (single isomer, unassigned) [Example 28b, N-(1-(3-(dimethylamino)-1-phenylpropyl)-1H-pyrazol-4-yl)-1,4,4a,5,5a,6-hexahydrocyclopropa[f]indazole-3-carboxamide]"
4,6.81,"CN(C)CCC(c1ccccc1)n1cc(NC(=O)c2n[nH]c3c2CC2CC2C3)cn1 (single isomer, unassigned) [Example 28c, N-(1-(3-(dimethylamino)-1-phenylpropyl)-1H-pyrazol-4-yl)-1,4,4a,5,5a,6-hexahydrocyclopropa[f]indazole-3-carboxamide]"
5,8.70,"CN(C)CCC(c1cccc(C(F)(F)F)c1)n1cc(NC(=O)c2n[nH]c3c2CCC(C)(C)C3)cn1 (single isomer, unassigned) [Example 30a, N-(1-(3-(dimethylamino)-1-(3-(trifluoromethyl)phenyl)propyl)-1H-pyrazol-4-yl)-6,6-dimethyl-4,5,6,7-tetrahydro-1H-indazole-3-carboxamide]"
6,8.40,"CN(C)CCC(c1cccc(C(F)(F)F)c1)n1cc(NC(=O)c2n[nH]c3c2CCC(C)(C)C3)cn1 (single isomer, unassigned) [Example 30b, N-(1-(3-(dimethylamino)-1-(3-(trifluoromethyl)phenyl)propyl)-1H-pyrazol-4-yl)-6,6-dimethyl-4,5,6,7-tetrahydro-1H-indazole-3-carboxamide]"
7,8.70,"Cn1cc(C(c2ccccc2)n2cc(NC(=O)c3n[nH]c4c3C3CC3CC4)cn2)cn1 (single isomer, unassigned) [Example 35b, N-(1-((1-methyl-1H-pyrazol-4-yl)(phenyl)methyl)-1H-pyrazol-4-yl)-3,4,5,5a,6,6a-hexahydro cyclopropa[e]indazole-1-carboxamide]"
8,7.85,"CC(=O)N1CC(C(c2ccccc2)n2cc(NC(=O)c3n[nH]c4c3CCC(C)(C)C4)cn2)C1 (single isomer, unassigned) [Example 37a, N-(1-((1-acetylazetidin-3-yl)(phenyl)methyl)-1H-pyrazol-4-yl)-6,6-dimethyl-4,5,6,7-tetrahydro-1H-indazole-3-carboxamide]"
9,9.15,"CNCCC(c1ccccc1)n1cc(NC(=O)c2n[nH]c3c2CCC(C)(C)C3)cn1 (single isomer, unassigned) [Example 39a, 6,6-dimethyl-N-(1-(3-(methylamino)-1-phenylpropyl)-1H-pyrazol-4-yl)-4,5,6,7-tetrahydro-1H-indazole-3-carboxamide]"

# The next lines start with the compound.
row,SMILES,pKi
1,"Cn1cc(C(c2ccccc2)n2cc(NC(=O)c3n[nH]c4c3CC3CC3C4)cn2)cn1 (single isomer, unassigned) [Example 27b, N-(1-((1-methyl-1H-pyrazol-4-yl)(phenyl)methyl)-1H-pyrazol-4-yl)-1,4,4a,5,5a,6-hexahydro cyclopropa[f]indazole-3-carboxamide]",7.96
2,"Cn1cc(C(c2ccccc2)n2cc(NC(=O)c3n[nH]c4c3CC3CC3C4)cn2)cn1 (single isomer, unassigned) [Example 27c, N-(1-((1-methyl-1H-pyrazol-4-yl)(phenyl)methyl)-1H-pyrazol-4-yl)-1,4,4a,5,5a,6-hexahydro cyclopropa[f]indazole-3-carboxamide]",7.35
3,"CN(C)CCC(c1ccccc1)n1cc(NC(=O)c2n[nH]c3c2CC2CC2C3)cn1 (single isomer, unassigned) [Example 28d, N-(1-(3-(dimethylamino)-1-phenylpropyl)-1H-pyrazol-4-yl)-1,4,4a,5,5a,6-hexahydrocyclopropa[f]indazole-3-carboxamide]",7.01
4,"CC1(C)CCc2c(C(=O)Nc3cnn(C(c4ccccc4)C4CNC4)c3)n[nH]c2C1 (single isomer, unassigned) [Example 34a, N-(1-(azetidin-3-yl(phenyl)methyl)-1H-pyrazol-4-yl)-6,6-dimethyl-4,5,6,7-tetrahydro-1H-indazole-3-carboxamide]",8.52
5,"CC1(C)CCc2c(C(=O)Nc3cnn(C(c4ccccc4)C4CNC4)c3)n[nH]c2C1 (single isomer, unassigned) [Example 34b, N-(1-(azetidin-3-yl(phenyl)methyl)-1H-pyrazol-4-yl)-6,6-dimethyl-4,5,6,7-tetrahydro-1H-indazole-3-carboxamide]",9.15
6,"Cn1cc(C(c2ccccc2)n2cc(NC(=O)c3n[nH]c4c3C3CC3CC4)cn2)cn1 (single isomer, unassigned) [Example 35a, N-(1-((1-methyl-1H-pyrazol-4-yl)(phenyl)methyl)-1H-pyrazol-4-yl)-3,4,5,5a,6,6a-hexahydro cyclopropa[e]indazole-1-carboxamide]",7.89
7,"Cn1cc(C(c2ccccc2)n2cc(NC(=O)c3n[nH]c4c3C3CC3CC4)cn2)cn1 (single isomer, unassigned) [Example 35c, N-(1-((1-methyl-1H-pyrazol-4-yl)(phenyl)methyl)-1H-pyrazol-4-yl)-3,4,5,5a,6,6a-hexahydro cyclopropa[e]indazole-1-carboxamide]",6.66
8,"Cn1cc(C(c2ccccc2)n2cc(NC(=O)c3n[nH]c4c3C3CC3CC4)cn2)cn1 (single isomer, unassigned) [Example 35d, N-(1-((1-methyl-1H-pyrazol-4-yl)(phenyl)methyl)-1H-pyrazol-4-yl)-3,4,5,5a,6,6a-hexahydro cyclopropa[e]indazole-1-carboxamide]",6.72
9,"CC(=O)N1CC(C(c2ccccc2)n2cc(NC(=O)c3n[nH]c4c3CCC(C)(C)C4)cn2)C1 (single isomer, unassigned) [Example 37b, N-(1-((1-acetylazetidin-3-yl)(phenyl)methyl)-1H-pyrazol-4-yl)-6,6-dimethyl-4,5,6,7-tetrahydro-1H-indazole-3-carboxamide]",8.70
10,"CN1CC(C(c2ccccc2)n2cc(NC(=O)c3n[nH]c4c3CCC(C)(C)C4)cn2)C1 (single isomer, unassigned) [Example 38a, 6,6-dimethyl-N-(1-((1-methylazetidin-3-yl)(phenyl)methyl)-1H-pyrazol-4-yl)-4,5,6,7-tetrahydro-1H-indazole-3-carboxamide]",8.40
11,"CN1CC(C(c2ccccc2)n2cc(NC(=O)c3n[nH]c4c3CCC(C)(C)C4)cn2)C1 (single isomer, unassigned) [Example 38b, 6,6-dimethyl-N-(1-((1-methylazetidin-3-yl)(phenyl)methyl)-1H-pyrazol-4-yl)-4,5,6,7-tetrahydro-1H-indazole-3-carboxamide]",9.30
12,"CNCCC(c1ccccc1)n1cc(NC(=O)c2n[nH]c3c2CCC(C)(C)C3)cn1 (single isomer, unassigned) [Example 39b, 6,6-dimethyl-N-(1-(3-(methylamino)-1-phenylpropyl)-1H-pyrazol-4-yl)-4,5,6,7-tetrahydro-1H-indazole-3-carboxamide]",8.22
13,"CC1(C)CCc2c(C(=O)Nc3cnn(C(CCN)c4ccccc4)c3)n[nH]c2C1 (single isomer, unassigned) [Example 42a, N-(1-(3-amino-1-phenylpropyl)-1H-pyrazol-4-yl)-6,6-dimethyl-4,5,6,7-tetrahydro-1H-indazole-3-carboxamide]",8.00
14,"CC1(C)CCc2c(C(=O)Nc3cnn(C(CCN)c4ccccc4)c3)n[nH]c2C1 (single isomer, unassigned) [Example 42b, N-(1-(3-amino-1-phenylpropyl)-1H-pyrazol-4-yl)-6,6-dimethyl-4,5,6,7-tetrahydro-1H-indazole-3-carboxamide]",9.05
15,"CN1CCC(C(c2ccccc2)n2cc(NC(=O)c3n[nH]c4c3CCC(C)(C)C4)cn2)CC1 (single isomer, unassigned) [Example 43a, 6,6-dimethyl-N-(1-((1-methylpiperidin-4-yl)(phenyl)methyl)-1H-pyrazol-4-yl)-4,5,6,7-tetrahydro-1H-indazole-3-carboxamide]",9.70
